Structures can show the parent of a compound that is named as a salt. Bridge positions count the residues as written; N and C are the ends. Square brackets hold non-standard residues; d marks the D form. Peptide text beside a SMILES is read from it. * marks the point of attachment. X1 = CC[C@H](C)CCCCC(=O)*; Dab = NCC[C@H](N)C(=O)O
What was measured:
[1] = Pharmacokinetic study, plasma colistin after intravenous dosing; assay type: in vivo, Sprague-Dawley (SD) rats; conditions: male SD rats, iv 3 mg/kg for 15 min, LC-MS; for t1/2, elimination half-time T1/2(β): 3 rats per group, colistin one-compartment, CCM-CL two-compartment model (PKsolver), 3 mg/kg
Experimental: Chromatographic separation was performed by the ACQUITY UHPLC system (Waters Corporation, Milford, MA, USA) on a Phenomenex Kinetex EVO C18 column (150 mm × 4.6 mm; I.D. 5 μm) maintained at 25 ± 5 °C. The mobile phase consisted of solution ‘A’ (acetonitrile) and solution ‘B’ (0.05% trifluoroacetic acid in water, v/v). The percentage was initially set at 10% and increased to 60% within 5 min, using a flow rate of 0.5 mL/min. […] The total run time was 9 min, and the injection volume was 20 μL. We set the autosampler at 10 ± 5 °C. The ultra-performance liquid chromatography (UHPLC) was interfaced to an ACQUITY QDa detector (Waters Corporation) with electrospray ionization […] in positive mode used for detection. The optimized tuning parameters were as follows: capillary voltage, 0.3 kV; cone voltage, 8 V; and probe temperature, 600 °C. The mass transitions were m/z 585.5 for colistin A, 578.5 for colistin B, and 602.8 for polymyxin B (an internal standard).
Sample pre-treatment: Five microliters of polymyxin B (Toronto Research Chemicals, CAS number 1405-20-5) dissolved in water (420 μg/mL, an internal standard) was added to 100 μL rat plasma sample. After that, 400 μL of acetonitrile and 10% trichloroacetic acid mixed solution (50/50, v/v) was added. The samples were vortex-mixed for 1 min and then centrifuged at 12,000 rpm for 10 min. Following centrifugation, the supernatant was collected and filtered with 0.45 μm PVDF membrane filter for analysis.
The day before the pharmacokinetic study, the right carotid artery of each rat was cannulated for collection of blood samples. Following surgery, rats were individually housed in metabolic cages and were given 24 h for recovery. […] Blood plasma was collected at min 0, 15, 60, 120, and 180 following drug infusion. All blood samples were collected and transferred into an EDTA-K2 tube, and were then centrifuged at 1500 rcf for 10 min at 4 °C. The experiments were repeated three times. After centrifugation, the plasma was collected and examined by LC-MS. In previous pharmacokinetic studies, colistin is best described by the one-compartment linear model. […] CMS is hydrolyzed to form partially sulfomethylated derivatives as well as colistin sulfate, the active form of the drug. Like CMS, colistin is released from CCM-CL once ferrous ions in the CCM complex are captured by transferrin [34]. Therefore, we estimated the pharmacokinetics for colistin using the one-compartment model and CCM-CL using the two-compartment model. The data were analyzed using PKsolver (Microsoft Excel).

[2] = test system: Pseudomonas aeruginosa 048431 (carbapenem-resistant blood isolate); assay: MIC by broth microdilution; assay type: cell-based; conditions: Mueller-Hinton broth, 5 x 10^5 CFUs/mL, 37 °C, 24 h
Experimental: (§1) Antimicrobial effects of the colistin and CCM-CL against P. aeruginosa ATCC 27853, A. baumannii BCRC 10591, and P. aeruginosa 048,431 were determined by the minimal inhibitory concentration (MIC). P. aeruginosa ATCC […] and A. baumannii BCRC 10591 are standard strains; they were purchased from the American Type Culture Collection and Biosource Collection and Research Center, Taiwan, respectively. P. aeruginosa 048431 is a carbapenem-resistant blood isolate from a patient with lung adenocarcinoma and ventilator-associated pneumonia. The broth microdilution method determined the MICs for the study drugs. Briefly, serial doubling dilutions of antimicrobial agents were made in a Mueller–Hinton broth. The final bacterial suspension in the mixture was adjusted to 5 × 10^5 CFUs/mL, and the exact colony count was measured by plating 10-fold serially diluted specimens of 100 μL aliquots on drug-free nutrient agar (Difco Laboratories, Franklin, NJ, USA). The mixtures of bacteria and drugs were incubated at 37 °C for 24 h. The MIC is defined as the lowest antibiotic concentration preventing visible growth in broth.

[3] = test system: Acinetobacter baumannii 10591; assay: MIC by broth microdilution; assay type: cell-based; conditions: Mueller-Hinton broth, 5 x 10^5 CFUs/mL, 37 °C, 24 h
Experimental: as §1

[4] = test system: Pseudomonas aeruginosa ATCC27853; assay: MIC by broth microdilution; assay type: cell-based; conditions: Mueller-Hinton broth, 5 x 10^5 CFUs/mL, 37 °C, 24 h
Experimental: as §1

male C57BL/6 mice = assay: No observed adverse effect level (NOAEL), up-and-down procedure; assay type: in vivo; conditions: for No. of Survival/Total Mice: 6 mg/mL, 8-week-old male C57BL/6 mice
Experimental: In the up-and-down method, animals were dosed one at a time. If an animal survived, the dose for the next animal increased; if it died, the next dose decreased. This test determined the safety of a single dose for intravenous bolus injection and 3 min infusion.

[5] = test system: carbapenem-resistant P. aeruginosa (CRPA); assay: Bacterial load in lung of infected mice; assay type: in vivo, C57BL/6 mice; conditions: mice infected intratracheally, drug iv 1.5 h after infection, sacrificed 48 h later, lung homogenate 10-fold diluted, 48 h incubation
Experimental: (§2) Male C57BL/6 mice (21 to 23 g) were divided into three groups (namely control, free colistin, and CCM-CL), with 10 mice in each group. All animals were administered 150 mg/kg of cyclophosphamide intraperitoneally, 3 days and 1 day before infection. At day 0 (defined as infection day), mice were infected with 0.04 mL of a drug-resistant strain P. aeruginosa 048431, which was administered intratracheally at a concentration of 5 × 10^5 CFUs/mL. Ninety minutes later, water, free colistin, and CCM-CL were administered intravenously at 8 mg/kg. On day 2, free colistin and CCM-CL at a dose of 8 mg/kg and water were administered again (Figure 5).
This study was conducted and administered along with the survival assay. The pulmonary burden of P. aeruginosa was determined on the third day. Mice were sacrificed with carbon dioxide; then, their lungs were removed aseptically and rinsed with sterile saline. The lungs were treated with a homogenizer and then subjected to a 10-fold series of dilutions; 0.05 mL of each dilution was plated on dextrose agar. The plates were then incubated at 37 °C for 2 days, and the colonies were then enumerated.

[6] = test system: carbapenem-resistant P. aeruginosa 048431 pneumonia; assay: Survival study in the neutropenic murine pneumonia model; assay type: in vivo; conditions: neutropenic (cyclophosphamide) male C57BL/6 mice, intratracheal P. aeruginosa 048431, 8 mg/kg iv 90 min after infection and again on day 2, n = 10
Experimental: as §2
Data were analyzed using WinSTATt (Microsoft Excel). Overall survival probabilities […] were estimated using the Kaplan–Meier method. The log-rank test (Cox–Mantel) was used to test significant differences in survival among groups.

SMILES: CC[C@H](C)CCCCC(=O)N[C@@H](CCN)C(=O)N[C@H](C(=O)N[C@@H](CCN)C(=O)N[C@H]1CCNC(=O)[C@H]([C@@H](C)O)NC(=O)[C@H](CCN)NC(=O)[C@H](CCN)NC(=O)[C@H](CC(C)C)NC(=O)[C@@H](CC(C)C)NC(=O)[C@H](CCN)NC1=O)[C@@H](C)O [Colistin, Colistin sulfate] (X1-[Dab]T[Dab][Dab][Dab][dL]L[Dab][Dab]T; lactam 4-C)
- AUC0–t ([1]; plasma sampled to 180 min): 239.31 mg·min/L
- AUC0–inf ([1]; plasma): 239.32 mg·min/L
- Cmax ([1]; plasma): 9030 ng/mL
- t1/2, elimination half-time T1/2(β) ([1]; plasma): 12.46 min
- t1/2, elimination half-time T1/2(β) ([1]; plasma, listed as free colistin): 102.23 min
- Minimal inhibitory concentration [2]: 0.5
- Minimal inhibitory concentration [3]: 2
- Minimal inhibitory concentration [4]: 0.5
- No. of Survival/Total Mice (male C57BL/6 mice; intravenous bolus injection, single dose 8 mg/kg): 5/5
- No. of Survival/Total Mice (male C57BL/6 mice; intravenous bolus injection, single dose 13 mg/kg): 0/1
- No. of Survival/Total Mice (male C57BL/6 mice; intravenous bolus injection, single dose 20 mg/kg): 1/3
- Safe dosage (NOAEL), slow infusion (male C57BL/6 mice; single 3 min intravenous infusion, male C57BL/6 mice): 8 mg/kg
- Safe (NOAEL) dose, bolus (male C57BL/6 mice; single intravenous bolus injection, male C57BL/6 mice): 13 mg/kg
- No. of Survival/Total Mice (male C57BL/6 mice; slow infusion (3 min), single dose 13 mg/kg): 0/1
- Colony counts of CRPA isolated from the lungs [5]: 60 CFU
- 14-day survival rate [6]: 30%
